This note sets out measurements from PMC4936777 (ACS chemical neuroscience, 2015).

One data set has as its target α1β2γ2L GABAA receptor (Homo sapiens, UniProt P14867+P18507+P47870). The experiment in a line: Two electrode voltage clamp of GABAA receptors expressed in X. laevis oocytes. As to conditions: for modulation of GABA EC10 current: coexposure with GABA EC10, −80 mV; for direct activation of the receptor in the absence of GABA: fropofol at 5 and 50 μM. It counts as cell-based. On the technique in general: Two-electrode voltage clamp is typically applied to oocytes expressing channels or transporters.

In data set [1] the target is T1, human serum albumin (hSA) (Homo sapiens, UniProt P02768). The experiment in a line: biochemical.
Data set [2] deals with T2, horse spleen apoferritin (HSAF) (Equus caballus, UniProt P02791).
T2 sequence (P02791 2-175 limits assumed): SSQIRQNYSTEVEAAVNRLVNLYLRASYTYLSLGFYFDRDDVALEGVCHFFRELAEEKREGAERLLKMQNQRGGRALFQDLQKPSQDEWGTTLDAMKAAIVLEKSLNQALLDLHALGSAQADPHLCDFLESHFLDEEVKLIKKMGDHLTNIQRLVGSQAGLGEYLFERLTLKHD
Kind of data set: Isothermal titration calorimetry with HSAF. The data set is classed as binding. For orientation: ITC needs no label: the signal is the heat of the interaction.

A short description of the next data set: in vivo. As to conditions: C57/B6, mouse, iv.
Data set [3] deals with T2, horse spleen apoferritin (HSAF). Kind of data set: [3H]AziPm photolabel competition with HSAF. As to conditions: One μM ligand. It counts as binding.
Data set [4] concerns the target T1, human serum albumin (hSA). To be noted: single site binding model.
In data set [5] the test system is isolated, intact rat trabecular muscle. Kind of data set: Force development of isolated intact trabecular muscle. As to conditions: 100 μM.
Data set [6] deals with T2, horse spleen apoferritin (HSAF). The experiment in a line: 1-aminoanthracene. It counts as binding.
The next data set is described as follows: physchem. As to conditions: water, thermodynamic from solid. The data set is classed as physicochemical.
In data set [7] the target is human serum albumin (hSA) domain III (Homo sapiens, UniProt P02768). Kind of data set: in vitro.
Data set [8] relates to albino Xenopus laevis tadpoles. The data set is classed as in vivo.
In another data set the test system is C57/Bl6 mice. Kind of data set: Pharmacological activity and EEG in mice after IV bolus. The data set is classed as in vivo, mouse.

Molecules are shown by their SMILES. ≈ marks a conversion by molar mass, not a printed value.

For orientation: Hill coefficient means a measure of the steepness of the concentration-response curve. As for `NCCCC(=O)O` [GABA, γ-Aminobutyric acid, reference compound], the Hill coefficient on α1β2γ2L GABAA receptor (GABA concentration–response, mean ± SEM) stood at 0.87 ± 0.04.

Usually Kd stands for a measure of binding affinity in units of concentration. Low values mean tighter binding, high ones weaker binding. In general, solubility refers to the dissolved amount per volume that the medium holds. Lower therefore signals a poorly soluble substance. As a reminder, the inhibition is the relative decrease from the control value, in per cent. Turning to `CC(C)c1cccc(C(C)C)c1F` [fropofol, 2-fluoro-1,3-diisopropylbenzene], the Kd came to 91 µM in data set [1], 1.7 µM in data set [2] and 0.7 µM in [6]. Moreover, the “fold increase in affinity for HSAF relative to propofol (ITC)” value in data set [2] (relative to propofol) is 4- to 5 fold. This compound also displayed a concentration at 45 s in “in vivo” (96 mg/kg) of 38000 ng/g. In the data set “in vivo” (200 mg/kg), this compound registered a concentration at 10 min of 51000 ng/g. The “reduction in [3H]AziPm binding to HSAF” value in [3] is 61%. Also, in data set [4], the “stoichiometry n for hSA (ITC)” value amounted to 1.3 ± 0.9. Moreover, the “depression (reduction) of maximum force development” value in [5] (LBN/F1, rat) is reported as 35 ± 1%. On α1β2γ2L GABAA receptor (50 μM fropofol, with GABA EC10 and propofol), the “effect on propofol positive modulation of the GABAA receptor” value was “no significant change”. The “modulation of GABA EC10 current” value on α1β2γ2L GABAA receptor is “no significant modulation or inhibition”. For the same compound, at α1β2γ2L GABAA receptor, the “direct activation of the receptor in the absence of GABA” value is listed as “no significant direct activation”. For the same compound, the “effect on 5 μM propofol potentiation of GABAA receptor currents” value on α1β2γ2L GABAA receptor (saturating concentrations of fropofol, with GABA EC10) is recorded as “no significant alteration”. The solubility at 24 h in the data set “physchem” was 116 ± 4.4 µM (≈ 20.9 µg/mL). In data set [7], this compound displayed an inhibition at 75 µM of 37 ± 12%. Besides, the “loss-of-mobility endpoints in tadpoles” value in [8] (3–100 μM, 60 and 90 min exposure) was “none of the X. laevis tadpoles within any dose group exhibited the standard loss-of-mobility endpoints”. Moreover, in [8] (albino, Xenopus laevis, in vivo), the “time to resume normal swimming behaviors after exchange for fresh pond water” value lay within 10 to 15 min. Besides, in the data set with C57/Bl6 mice (96 mg/kg, bolus tail vein injection, 10% lipid emulsion), the “observable effects in mice” value is on record as “no observable effects”. The “toxicity in mice in the following days postinjection” value in the data set on C57/Bl6 mice (180 mg/kg IV) is reported as “no toxicity was observed”. The “time to resume normal activity in mice” value with C57/Bl6 mice (C57/B6, mouse, in vivo) is 2 to 3 h. For the same compound, the “EEG recording in mice” value in the data set on C57/Bl6 mice (mouse, in vivo) is “Phenotypical seizure activity”. Moreover, the “EEG recordings and physical observation in mice” value in the data set with C57/Bl6 mice (mouse, in vivo) is on record as “generalized tonic-clonic seizure-like activity”. Also, the “loss of righting reflex in mice” value in the data set with C57/Bl6 mice (up to the highest dose) was “not with even the highest dose”.

Turning to `CC(C)c1cccc(C(C)C)c1O` [propofol, 2,6-diisopropylphenol, reference compound], in [3], the “reduction in [3H]AziPm binding to HSAF” value amounted to 31%. In addition, in [5] (room temperature), the “depression (reduction) of maximum force development” value amounted to 49 ± 4%. Moreover, the affinity in [6], expressed as Kd, was 10 µM. On α1β2γ2L GABAA receptor, the “modulation of GABA EC10 current” value is recorded as “concentration-dependent increase in current up to 80 μM” and the “direct activation of the receptor in the absence of GABA” value is recorded as “minor direct activation”. In addition, in the data set with C57/Bl6 mice (20 mg/kg), the “loss of righting reflex in mice” value is “produced”.
